Data published in patent publication US12690589B2, “Herbicidal compositions comprising pyroxasulfone” (BASF SE, priority 2024, dated 2026).
Where “and” joins values, the source holds several entries; their conditions need not be identical. Equal entries are not always repeated.

Key:
Test in all cases: Post-emergence application in field trials, herbicidal activity (damage scale 0 to 100%)
Assay type in all cases: in vivo
[1] = system: Commelina benghalensis (COMBE); settings: 21 DAT
[2] = system: Portulaca oleracea (POROL); settings: growth stage 14-16, height 5-10 cm, 20 DAT, Table 2.1
Eleusine indica (ELEIN) = system: Eleusine indica (ELEIN)
[3] = system: Spermacoce latifolia (BOILF); settings: 21 DAT, Table 2.5
[4] = system: Galinsoga parviflora (GASPA); settings: height 15-35 cm, 21 DAT, Table 2.4
[5] = system: Digitaria horizontalis (DIGHO); settings: growth stage 25, height 5-10 cm, 21 DAT, Table 2.6
Senecio vulgaris (SENVU) = settings: growth stage 61-62, height 25-30 cm
In short: (§1)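 Field sites with natural or seeded weeds were sprayed post-emergence via flat fan nozzles in 200 l/ha water plus 0.25 v/v % MSO adjuvant, solo or mixed with pyroxasulfone and other partners. Damage was scored 0–100% versus untreated plants at indicated DAT. Colby expected values were used to judge synergy.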

Glycine max (GLXMA) = system: Glycine max (GLXMA)
In short: as §1

[6] = 7 DAT, stage 12-13, height 7-11 cm, g ai/ha A-1 12.5, B 70, C-4 12.5
[7] = 42 DAT, stage 12-13, height 7-11 cm, g ai/ha A-1 18, B 70
[8] = 42 DAT, stage 12-13, height 7-11 cm, g ai/ha A-1 18, B 90

SMILES: CCOC(=O)COc1ccccc1Oc1nc(-n2c(=O)cc(C(F)(F)F)n(C)c2=O)c(F)cc1Cl [A-1, ethyl 2-[2-[[3-chloro-5-fluoro-6-[3-methyl-2,6-dioxo-4-(trifluoromethyl)pyrimidin-1-yl]-2-pyridyl]oxy]phenoxy]acetate]
- % Herbicidal activity ([1]; growth stage 11-14, height 2-10 cm, A-1 50 g ai/ha, Table 2.6): 94%
- % Herbicidal activity ([1]; height 20-25 cm, A-1 25 g ai/ha, Table 2.2): 42%
- % Herbicidal activity ([2]; A-1 50 g ai/ha): 60%
- % Herbicidal activity (Eleusine indica (ELEIN); growth stage 21-25, height 5-10 cm, A-1 25 g ai/ha, 20 DAT, Table 2.1): 53%
- % Herbicidal activity (Eleusine indica (ELEIN); growth stage 21-25, height 5-10 cm, A-1 50 g ai/ha, 20 DAT, Table 2.1): 59%
- % Herbicidal activity (Eleusine indica (ELEIN); growth stage 23-25, height 3-5 cm, A-1 25 g ai/ha, 21 DAT, Table 2.6): 94%
- % Herbicidal activity (Eleusine indica (ELEIN); growth stage 23-25, height 3-5 cm, A-1 50 g ai/ha, 21 DAT, Table 2.6): 95%
- % Herbicidal activity (Eleusine indica (ELEIN); height 20-25 cm, A-1 25 g ai/ha, 21 DAT, Table 2.3): 52%
- % Herbicidal activity ([3]; A-1 25 g ai/ha): 94%
- % Herbicidal activity ([3]; A-1 50 g ai/ha): 97%
- % Herbicidal activity ([4]; A-1 25 g ai/ha): 82%
- % Herbicidal activity ([4]; A-1 50 g ai/ha): 94%
- % Herbicidal activity ([5]; A-1 50 g ai/ha): 92%
- % Herbicidal activity (Senecio vulgaris (SENVU); A-1 12.5 g ai/ha, 7 DAT, Table 4.2): 90%
- % Herbicidal activity (Senecio vulgaris (SENVU); A-1 12.5 g ai/ha, 21 DAT, Table 4.4): 40%
- % Herbicidal activity (Senecio vulgaris (SENVU); A-1 18 g ai/ha, 21 DAT, Table 4.4): 40%
- % Herbicidal activity (Glycine max (GLXMA); [6]): 90%
- % Herbicidal activity (Glycine max (GLXMA); [7]): 95%
- % Herbicidal activity (Glycine max (GLXMA); [8]): 95%
- % Herbicidal activity (Glycine max (GLXMA); GLXMA, growth stage 12-13, height 7-11 cm, A-1 12.5 g ai/ha, 7 DAT, Table 4.1): 90%
- % Herbicidal activity (Glycine max (GLXMA); GLXMA, growth stage 12-13, height 7-11 cm, A-1 12.5 g ai/ha, 21 DAT, Table 4.3): 95%
- % Herbicidal activity (Glycine max (GLXMA); GLXMA, growth stage 12-13, height 7-11 cm, A-1 18 g ai/ha, 7 DAT, Table 4.1): 90%
- % Herbicidal activity (Glycine max (GLXMA); GLXMA, growth stage 12-13, height 7-11 cm, A-1 18 g ai/ha, 21 DAT, Table 4.3): 92%

SMILES: Cn1nc(C(F)(F)F)c(CS(=O)(=O)C2=NOC(C)(C)C2)c1OC(F)F [B, pyroxasulfone]
- % Herbicidal activity ([1]; growth stage 11-14, height 2-10 cm, B 120 g ai/ha, Table 2.6): 10%
- % Herbicidal activity ([1]; height 20-25 cm, B 120 g ai/ha, Table 2.2): 0%
- % Herbicidal activity ([2]; B 120 g ai/ha): 0%
- % Herbicidal activity (Eleusine indica (ELEIN); growth stage 21-25, height 5-10 cm, B 120 g ai/ha, 20 DAT, Table 2.1): 0%
- % Herbicidal activity (Eleusine indica (ELEIN); growth stage 23-25, height 3-5 cm, B 120 g ai/ha, 21 DAT, Table 2.6): 5%
- % Herbicidal activity (Eleusine indica (ELEIN); height 20-25 cm, B 120 g ai/ha, 21 DAT, Table 2.3): 0%
- % Herbicidal activity ([3]; B 120 g ai/ha): 5%
- % Herbicidal activity ([4]; B 120 g ai/ha): 0%
- % Herbicidal activity ([5]; B 120 g ai/ha): 5%
- % Herbicidal activity (Senecio vulgaris (SENVU); B 70 g ai/ha, 7 DAT, Table 4.2): 30%
- % Herbicidal activity (Senecio vulgaris (SENVU); B 70 g ai/ha, 21 DAT, Table 4.4): 20% and 10%
- % Herbicidal activity (Senecio vulgaris (SENVU); B 90 g ai/ha, 21 DAT, Table 4.4): 20%
- % Herbicidal activity (Glycine max (GLXMA); [6]): 0%
- % Herbicidal activity (Glycine max (GLXMA); [7]): 0%
- % Herbicidal activity (Glycine max (GLXMA); [8]): 0%
- % Herbicidal activity (Glycine max (GLXMA); GLXMA, growth stage 12-13, height 7-11 cm, B 70 g ai/ha, 7 DAT, Table 4.1): 0%
- % Herbicidal activity (Glycine max (GLXMA); GLXMA, growth stage 12-13, height 7-11 cm, B 70 g ai/ha, 21 DAT, Table 4.3): 0%
- % Herbicidal activity (Glycine max (GLXMA); GLXMA, growth stage 12-13, height 7-11 cm, B 90 g ai/ha, 7 DAT, Table 4.1): 0%
- % Herbicidal activity (Glycine max (GLXMA); GLXMA, growth stage 12-13, height 7-11 cm, B 90 g ai/ha, 21 DAT, Table 4.3): 0%
